Data on 1 compound can be found in patent US6689381B2, “Liposomal benzoquinazoline thymidylate synthase inhibitor formulations” (OSI Pharmaceuticals, Inc., priority 2000, dated 2004).

Several values for one entry are separate records, joined by “and”; a condition that tells them apart may be missing. Equal values may be shown once. Read-outs that look alike come from different tables or passages of the source.

The nature of data set [1]: Example 2: single dose plasma pharmacokinetics of free GW1843 and four liposomal formulations, 1 mg/kg iv bolus. It is filed as in vivo, Sprague Dawley rats. Particulars: single 1 mg/kg iv bolus; for GW1843 Plasma Concentration: listed as Free GW1843, 1 mg/kg. An excerpt:
The plasma pharmacokinetics of free GW1843 and 4 different liposome formulations (see Table 1A; GC-1007-27, GC-1020-36, NA-1022-63A, and NA-1022-59A) of GW1843 in rats following a single intravenous bolus administration are compared. The liposome formulations differed by the pH utilized to load the liposome. NX1843 lot nos. GC-1007-27, GC-1020-36, NA-1022-63A, and NA-1022-59A were loaded at pH 7.0, 7.4, 7.3 and 7.5, respectively.
A total of fifteen Sprague Dawley rats were used in the study. Each rat weighed approximately 250 grams. Three animals were assigned to each group (five groups in total). Individual animals were weighed and dosed at 1 mg/kg body weight by intravenous bolus administration into the tail vein while under isoflurene anesthesia. EDTA blood samples were taken at the time points shown in Table 2 while under isoflurene anesthesia and immediately processed into plasma. Plasma was stored at −20° C. until analysis.
Plasma samples were prepared and analyzed for GW1843 by the use of a non-validated HPLC assay. Following methanol precipitation of plasma protein, the soluble GW1843 was separated by C-18 reverse phase column chromatography. Separation was achieved by an isocratic method. Running buffer consisted of 80% acetonitrile and 20% 100 mM ammonium acetate pH=5.3. Area under the peak versus concentration of GW1843 was used to construct the standard curve.
Pharmacokinetic parameters were determined by non-compartmental analysis (WinNonlin version 1.5). Pharmacokinetic parameters were determined for each experimental group using the average concentration versus time values for each group. The following parameters were calculated: Maximum plasma concentration (Cmax); area under the plasma concentration versus time curve extrapolating to infinite time (AUCinf) or to last time point (AUClast); elimation half-life (Elim.T½); mean residence time (MRT) plasma clearance (Cl) and volume of distribution at steady state (Vss).

The subject of data set [2] is human colon tumor xenograft model (HCT-8, thymidine kinase (TK)-/-). Put plainly: HCT-8 xenograft, second study: liposomal GW1843U89 versus free drug (Table 26). Format: in vivo, Female Nu/Nu mice. An excerpt:
Female Nu/Nu mice (18-24 g, 10-14 weeks old) were obtained from Harlan Sprague Dawley, and housed in microisolator filtration racks and maintained with filtered acidified water and sterile lab chow ad libitum. The human colon tumor xenograft model (HCT-8, thymidine kinase (TK)−/−) was obtained from Dr. Youcef M. Rustum (Roswell Park, Buffalo, N.Y.), and established in-house as a useful model for evaluation of thymidylate synthase inhibitors. Animals were allowed to acclimate to their new environment for 1 week prior to tumor cell implantation. Tumors were established by injecting harvested tumor cells in a single subcutaneous site on the flank of the mice in the axillary region. The tumors were grown until approximately 200+/−50 mm^3 in size. The animals were then sorted according to body weight, grouped four animals/cage, and tattooed on the tail for permanent identification. […] Tumor volumes were determined with vernier caliper measurements taken at right angles using the formula, (L×W^2/2) and body weights, were collected twice weekly. Data was plotted as % change in body weight vs. time in days, and % tumor volume increase vs. days.
(§1) T=(mean) time in days for treated group to reach cutoff size (2 grams)
(§2) C=(mean) time in days for control group to reach cutoff size (2 grams)
(§3) WC is the mean tumor weight of control group at time x
(§4) Wt is mean tumor weight of treated group at time x
(§5) % Regression=100 (Wo−Wi)/Wo; where Wo is the mean tumor weight for treated group at the initiation of treatment and Wi=the mean tumor weight for that group at time some time x after treatment. Many times the time x=24-48 hr after the final dose of therapy.
(§6) The log10 cell kill (gross)=[T−C value in days/(3.32)(Td)
Where T−C=time difference in days between Treated and Control tumors to reach a defined end point; and Td is the Tumor Volume Doubling time in days from the best-fit straight line from a log-linear growth plot of the control tumors exponential growth (100-800 mg range). […]

The test system is the same in data set [3]. Format: in vivo. As to conditions: for durable cures: until termination at day 57.
From the text: Female Nu/Nu mice (18-24 g, 10-14 weeks old) were obtained from Harlan Sprague Dawley, and housed in microisolator filtration racks and maintained with filtered acidified water and sterile lab chow ad libitum. The human colon tumor xenograft model (HCT-8, thymidine kinase (TK)−/−) was obtained from Dr. Youcef M. Rustum (Roswell Park, Buffalo, N.Y.), and established in-house as a useful model for evaluation of thymidylate synthase inhibitors. Animals were allowed to acclimate to their new environment for 1 week prior to tumor cell implantation. Tumors were established by injecting harvested tumor cells in a single subcutaneous site on the flank of the mice in the axillary region. The tumors were grown until approximately 200+/−50 mm^3 in size. The animals were then sorted according to body weight, grouped four animals/cage, and tattooed on the tail for permanent identification. Groups consisting of 8 tumor-bearing mice each were administered weekly doses of experimental agents by IV bolus injection through the tail vein. Tumor volumes were determined with vernier caliper measurements taken at right angles using the formula, (L×W^2/2) and body weights, were collected twice weekly. Data was plotted as % change in body weight vs. time in days, and % tumor volume increase vs. days.
as §1, §2, §3, §4, §5, §6
Where T−C=time difference in days between Treated and Control tumors to reach a defined end point; and Td is the Tumor Volume Doubling time in days from the best-fit straight line from a log-linear growth plot of the control tumors exponential growth (100-800 mg range). The conversion of the T−C values to the net log10 tumor cell kill are provided by subtraction of the duration of the treatment period from the T−C value and then dividing by 3.32×Td.
The initial experiment, designated NMX-427, tested the effects of GW1843U89 at two different dose levels, 50 and 100 mg/kg/day×17 days. The control group received vehicle alone. […] There were two durable cures, one in each of the dose groups, which remained until termination of the experiment at day 57. The side-effect toxicity as measured by gross body weight loss was minimal in both drug-treated groups, and was greatest in […]. […]

Setting [4] is: Sprague Dawley, rat, plasma, rats ~250 g, noncompartmental, group average.

What is called half-life is the time in which the quantity being followed falls by half. The term AUC(0-inf) denotes the area under the concentration-time curve extrapolated to infinity. Read a low AUC(0-inf) as low exposure. Broadly, the AUC(0-t) is the area under the concentration-time curve up to a stated or last time point. A high value points to more exposure. A word on the MRT inf: it is the average time that molecules of a dose stay in the body. In the case of `Cc1nc2ccc3ccc(CNc4ccc5c(c4)CN(C(CCC(=O)O)C(=O)O)C5=O)cc3c2c(=O)[nH]1` (stereo not drawn) [GW1843], the “GW1843 Plasma Concentration” value is 0.76 µg/mL in data set [1] (0.083 h, individual rats); 0.20 µg/mL and 0.19 µg/mL in data set [1] (0.250 h, individual rats); 0.11 µg/mL and 0.10 µg/mL in data set [1] (0.500 h, individual rats); “BLQ and 0.06 μg/mL” in data set [1] (1.000 h, individual rats). This compound also returned a concentration at 0.083 h in data set [1] (Sprague Dawley, rat, plasma, iv, 1 mg/kg, 0.083 h, individual rats) of 520 ng/mL. The same compound yielded a concentration at 0.25 h in data set [1] (Sprague Dawley, rat, plasma, iv, 1 mg/kg, 0.250 h, individual rats) of 180 ng/mL. In addition, in data set [1] (Sprague Dawley, rat, plasma, iv, 1 mg/kg, 0.500 h, individual rats), the concentration at 0.5 h amounted to 100 ng/mL. The same compound came in with a concentration at 1 h in data set [1] (Sprague Dawley, rat, plasma, iv, 1 mg/kg, 1.000 h, individual rats) of 60 ng/mL. The Cmax in data set [1] (Sprague Dawley, rat, plasma, iv, 1 mg/kg, rats ~250 g, noncompartmental, group average, read-out: Cmax) came out at 1280 ng/mL; in data set [1] (Sprague Dawley, rat, plasma, iv, 1 mg/kg, rats, text of Example 2, read-out: maximum achieved concentrations (Cmax) in the plasma), 1300 ng/mL. In data set [1] (Sprague Dawley, rat, plasma, iv, 1 mg/kg, rats ~250 g, noncompartmental, group average, read-out: t½ (elimination half-life) (converted)), the half-life was about 30 min. In data set [1] (setting [4]), this compound came in with an AUC(0-inf) of 263 ng·h/mL. The compound further gave an AUC(0-t) in data set [1] (setting [4]) of 219 ng·h/mL. Also, the MRT inf in data set [1] (setting [4]) was 30 min. For the same compound, the clearance is 63.4 mL/min/kg in data set [1] (Sprague Dawley, rat, plasma, rats ~250 g, noncompartmental, group average, read-out: Cl (converted)) and 63.4 mL/min in data set [1] (Sprague Dawley, rat, plasma, rats, text of Example 2, read-out: plasma clearance (converted)). The Vd in data set [1] (Sprague Dawley, rat, plasma, rats ~250 g, noncompartmental, group average, read-out: Vss) came out at 1.89 L/kg. For the same compound, the log cell kill in data set [2] (25 mg/kg every day (total 350 mg/kg)) amounted to 1.5; in data set [2] (50 mg/kg every day (total 700 mg/kg)) it was 3.5; in data set [3] (50 mg/kg/day×17 days) it was 3.0; in data set [3] (100 mg/kg/day×17 days) it was 3.3. Moreover, the “tumor regression” value in data set [2] (25 and 50 mg/kg every day) was “no tumor regression occurred”. For the same compound, the durable cures entry in data set [3] (50 mg/kg/day×17 days) and in data set [3] (100 mg/kg/day×17 days) was “one” each time.
